Values after ≈ are worked out from the molar mass of the structure shown. Residues, ends and D or L forms follow the SMILES beside them.
Legend:
[1] = test system: B. cenocepacia; conditions: pH 7.4
[2] = test system: A. baumannii ATCC 19606; conditions: for MIC at pH 5.0, A. baumannii ATCC 19606: ATCC 19606, pH 5; for MIC at pH 7.4, A. baumannii ATCC 19606: ATCC 19606, pH 7.4; for MIC at pH 8.0, A. baumannii ATCC 19606: ATCC 19606, pH 8
[3] = test system: S. maltophilia; conditions: pH 7.4
[4] = test system: E. cloacae; conditions: pH 7.4
[5] = test system: HEK293 cell line; type: cell-based; conditions: 48 h
How it was run: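 HEK293 cells seeded at 2 × 10³/well, incubated 48 h at 37 °C with serially diluted compounds (stock 2 mg/mL) in DMEM with 10% FBS. AlamarBlue added at 10% final for 3–5 h; fluorescence ex 560/em 590 nm, normalized to untreated cells.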

[6] = test system: S. aureus Newman; conditions: Newman, pH 7.4
[7] = test system: P. aeruginosa ZEM9A; conditions: ZEM9A, pH 7.4
[8] = test system: S aureus COL (methicillin-resistant Staphylococcus aureus); conditions: for MIC at pH 5.0, S aureus COL: COL (methicillin-resistant, pH 5); for MIC at pH 7.4, S aureus COL: COL (methicillin-resistant, pH 7.4); for MIC at pH 8.0, S aureus COL: COL (methicillin-resistant, pH 8)
[9] = test system: K. pneumoniae NCTC 418; conditions: for MIC at pH 5.0, K. pneumoniae NCTC 418: NCTC 418, pH 5; for MIC at pH 7.4, K. pneumoniae NCTC 418: NCTC 418, pH 7.4; for MIC at pH 8.0, K. pneumoniae NCTC 418: NCTC 418, pH 8
[10] = test system: P. aeruginosa ZEM-1A; conditions: ZEM-1A, pH 7.4
[11] = test system: P. aeruginosa PA14; conditions: PA14, pH 7.4
[12] = test system: K. pneumoniae OXA-48; conditions: OXA-48, pH 7.4
[13] = test system: P. aeruginosa PAO1; conditions: for MIC at pH 5.0, P. aeruginosa PAO1: PAO1, pH 5; for MIC at pH 7.4, P. aeruginosa PAO1: PAO1, pH 7.4; for MIC at pH 8.0, P. aeruginosa PAO1: PAO1, pH 8
[14] = test system: E. coli W3110; conditions: for MIC at pH 5.0, E. coli W3110: W3110, pH 5; for MIC at pH 7.4, E. coli W3110: W3110, pH 7.4; for MIC at pH 8.0, E. coli W3110: W3110, pH 8
[15] = test system: P. aeruginosa PAO1; assay: DiSC3(5) inner membrane depolarization assay; type: cell-based, Pseudomonas aeruginosa; conditions: PAO1 in HEPES buffer pH 7.4, 2 μM DiSC3(5), up to 64 μg/mL, read within 5 min
Method: page 29: 11. DiSC3(5) Membrane Depolarization Assay A single colony of Pseudomonas aeruginosa PAO1 was grown overnight with shaking (150 rpm) in LB-broth (5 mL) at 37 °C. 100 μL of the overnight culture was regrown in 10 mL LB- broth with shaking (200 rpm) to the exponential phase OD 600 = 1 (10^9 CFU/mL). Bacteria were washed once with HEPES buffer (5 mM HEPES, 5 mM glucose, pH 7.4) and diluted to OD 600 = 0.4. Stock solution of 10 mM of DiSC3(5) was prepared in DMSO. Stock solutions of 1 mg/mL of the compounds were prepared in sterilized milli-Q water and diluted to the beginning concentration of 128 μg/mL in 200 μL HEPES buffer containing […] the fluorescent probe DiSC3(5) 4 μM. The diluted samples were added to the first well of 96-well plates (black wells, flat bottom, BRAND® GmbH Wertheim, Germany) and diluted serially by 1/2. 100 μL of the bacterial suspension in HEPES buffer (without DiSC3(5)) were added to each well. In this case, the final OD of bacteria was 0.2, the final concentration of peptide in the first column is 64 μg/mL and DiSC3(5) 2 μM. The control wells are buffer containing DiSC3(5) and bacterial suspension containing DiSC3(5) in HEPES buffer. The plate was measured with a Tecan instrument Infinite M1000 within 5 min. The plate was enabled to shake for 5 sec before measurement. […]

[16] = test system: P. aeruginosa PAO1; assay: PI cell permeabilization assay (flow cytometry); type: cell-based, Pseudomonas aeruginosa; conditions: PAO1 (OD600 = 1) incubated 20 min at 37°C, PI 5 µg/mL
Method: page 31: 12. Cell Membrane Permeability Assay Propidium iodide (PI) was used as the fluorescent dye to evaluate integrity of bacterial membranes. A single colony of Pseudomonas aeruginosa PAO1 was grown overnight with shaking (150 rpm) in LB-broth (5 mL) at 37 °C. 100 μL of the overnight culture was regrown in 10 mL LB-broth to the exponential phase OD600 1 (10^9 CFU/mL). Bacteria was washed with MH and then re-suspended to a working concentration of OD600 = 1. AMPDs and polymyxin B (stock solution 1 mg/mL) were added at different final concentrations ( 16, 32 and 64 μg/mL). Samples were incubated with shaking (150 rpm) at 37°C for 20 minutes before samples were centrifuged at 14 000 rpm for 3 min. Bacteria sample was washed twice with PBS and stained with PI 5 µg/mL in PBS with shaking (150 rpm) at 37°C for 20 minutes. Bacteria sample was washed 5 times with PBS and the fluorescence intensity of bacteria suspensions was observed and recorded on a ImageStream ® X Mark II Imaging Flow Cytometer with a 488 nm laser , bacteria cells wi th fluorescent intensity higher than 2 × 104 is defined as PI positive cells. Percentage of PI positive cells was calculated by IDEA S workstation . S30

Molecule	MIC, B. cenocepacia [1]	MIC at pH 5.0, A. baumannii ATCC 19606 [2]	MIC at pH 7.4, A. baumannii ATCC 19606 [2]	MIC at pH 8.0, A. baumannii ATCC 19606 [2]	MIC, S. maltophilia [3]	MIC, E. cloacae [4]	IC50 HEK293 [5]	MIC, S. aureus Newman [6]	MIC, P. aeruginosa ZEM9A [7]	MIC at pH 5.0, S aureus COL [8]	MIC at pH 7.4, S aureus COL [8]	MIC at pH 8.0, S aureus COL [8]	MIC at pH 5.0, K. pneumoniae NCTC 418 [9]	MIC at pH 7.4, K. pneumoniae NCTC 418 [9]	MIC at pH 8.0, K. pneumoniae NCTC 418 [9]	MIC, P. aeruginosa ZEM-1A [10]	MIC, P. aeruginosa PA14 [11]	MIC, K. pneumoniae OXA-48 [12]	MIC at pH 5.0, P. aeruginosa PAO1 [13]	MIC at pH 7.4, P. aeruginosa PAO1 [13]	also measured
CC(C)C[C@H](NC(=O)[C@H](CCCCN)NC(=O)[C@H](CCCCNC(=O)[C@H](CC(C)C)NC(=O)[C@H](CCCCN)NC(=O)[C@H](CCCCNC(=O)[C@H](CC(C)C)NC(=O)[C@H](CCCCN)NC(=O)[C@H](CCCCNC(=O)[C@H](CC(C)C)NC(=O)[C@@H](N)CCCCN)NC(=O)[C@H](CC(C)C)NC(=O)[C@@H](N)CCCCN)NC(=O)[C@H](CC(C)C)NC(=O)[C@H](CCCCN)NC(=O)[C@H](CCCCNC(=O)[C@H](CC(C)C)NC(=O)[C@@H](N)CCCCN)NC(=O)[C@H](CC(C)C)NC(=O)[C@@H](N)CCCCN)NC(=O)[C@H](CC(C)C)NC(=O)[C@H](CCCCN)NC(=O)[C@H](CCCCNC(=O)[C@H](CC(C)C)NC(=O)[C@H](CCCCN)NC(=O)[C@H](CCCCNC(=O)[C@H](CC(C)C)NC(=O)[C@@H](N)CCCCN)NC(=O)[C@H](CC(C)C)NC(=O)[C@@H](N)CCCCN)NC(=O)[C@H](CC(C)C)NC(=O)[C@H](CCCCN)NC(=O)[C@H](CCCCNC(=O)[C@H](CC(C)C)NC(=O)[C@@H](N)CCCCN)NC(=O)[C@H](CC(C)C)NC(=O)[C@@H](N)CCCCN)C(N)=O [L-G3KL, reference compound] (HELM PEPTIDE1{K.L.K.K.L.K.K.L.K.K.L.[am]}|PEPTIDE2{K.L}|PEPTIDE3{K.L.K.K.L.K.K.L}|PEPTIDE4{K.L}|PEPTIDE5{K.L.K.K.L}|PEPTIDE6{K.L}|PEPTIDE7{K.L.K.K.L}|PEPTIDE8{K.L}$PEPTIDE1,PEPTIDE2,3:R3-2:R2|PEPTIDE3,PEPTIDE4,3:R3-2:R2|PEPTIDE5,PEPTIDE6,3:R3-2:R2|PEPTIDE7,PEPTIDE8,3:R3-2:R2|PEPTIDE1,PEPTIDE7,6:R3-5:R2|PEPTIDE1,PEPTIDE3,9:R3-8:R2|PEPTIDE3,PEPTIDE5,6:R3-5:R2$$$V2.0)	>64 µg/mL	8 μg/mL	8 μg/mL	1 μg/mL	8 µg/mL (≈ 1.76 µM)	8 µg/mL (≈ 1.76 µM)	460 ± 17 µg/mL (≈ 101 µM)	>64 µg/mL	16 µg/mL (≈ 3.53 µM)	> 64 μg/mL	> 64 μg/mL	2 μg/mL	> 64 μg/mL	> 64 μg/mL	4 μg/mL	4 µg/mL (≈ 0.882 µM)	2 to 4 µg/mL	>64 µg/mL	16 μg/mL	4 μg/mL	MIC at pH 8.0, P. aeruginosa PAO1 [13]: 1 μg/mL; MIC at pH 5.0, E. coli W3110 [14]: 32 μg/mL; MIC at pH 7.4, E. coli W3110 [14]: 8 μg/mL; MIC at pH 8.0, E. coli W3110 [14]: 1–2 μg/mL
CC(C)C[C@H](NC(=O)[C@H](CCCCN)NC(=O)[C@H](CCCCN)NC(=O)[C@H](CCCCNC(=O)[C@H](CC(C)C)NC(=O)[C@H](CC(C)C)NC(=O)[C@H](CCCCN)NC(=O)[C@H](CCCCNC(=O)[C@H](CC(C)C)NC(=O)[C@H](CCCCN)NC(=O)[C@H](CCCCNC(=O)[C@H](CC(C)C)NC(=O)[C@@H](N)CCCCN)NC(=O)[C@H](CC(C)C)NC(=O)[C@@H](N)CCCCN)NC(=O)[C@H](CC(C)C)NC(=O)[C@H](CCCCN)NC(=O)[C@H](CCCCNC(=O)[C@H](CC(C)C)NC(=O)[C@@H](N)CCCCN)NC(=O)[C@H](CC(C)C)NC(=O)[C@@H](N)CCCCN)NC(=O)[C@H](CC(C)C)NC(=O)[C@H](CC(C)C)NC(=O)[C@H](CCCCN)NC(=O)[C@H](CCCCNC(=O)[C@H](CC(C)C)NC(=O)[C@H](CCCCN)NC(=O)[C@H](CCCCNC(=O)[C@H](CC(C)C)NC(=O)[C@@H](N)CCCCN)NC(=O)[C@H](CC(C)C)NC(=O)[C@@H](N)CCCCN)NC(=O)[C@H](CC(C)C)NC(=O)[C@H](CCCCN)NC(=O)[C@H](CCCCNC(=O)[C@H](CC(C)C)NC(=O)[C@@H](N)CCCCN)NC(=O)[C@H](CC(C)C)NC(=O)[C@@H](N)CCCCN)C(N)=O [L-T7, reference compound] (HELM PEPTIDE1{K.L.K.K.L.K.K.L.L.K.K.K.L.[am]}|PEPTIDE2{K.L}|PEPTIDE3{K.L.K.K.L.K.K.L.L}|PEPTIDE4{K.L}|PEPTIDE5{K.L.K.K.L}|PEPTIDE6{K.L}|PEPTIDE7{K.L.K.K.L}|PEPTIDE8{K.L}$PEPTIDE1,PEPTIDE2,3:R3-2:R2|PEPTIDE3,PEPTIDE4,3:R3-2:R2|PEPTIDE5,PEPTIDE6,3:R3-2:R2|PEPTIDE7,PEPTIDE8,3:R3-2:R2|PEPTIDE1,PEPTIDE7,6:R3-5:R2|PEPTIDE1,PEPTIDE3,10:R3-9:R2|PEPTIDE3,PEPTIDE5,6:R3-5:R2$$$V2.0)	>64 µg/mL	16 μg/mL	8 μg/mL	2–4 μg/mL	4 µg/mL (≈ 0.818 µM)	8 µg/mL (≈ 1.64 µM)	70 ± 6 µg/mL (≈ 14.3 µM)	>64 µg/mL	8 µg/mL (≈ 1.64 µM)	> 64 μg/mL	> 64 μg/mL	4 μg/mL	> 64 μg/mL	32 μg/mL	8 μg/mL	4 µg/mL (≈ 0.818 µM)	8 µg/mL (≈ 1.64 µM)	16 µg/mL (≈ 3.27 µM)	16 μg/mL	8 μg/mL	MIC at pH 8.0, P. aeruginosa PAO1 [13]: 2–4 μg/mL; MIC at pH 5.0, E. coli W3110 [14]: 16 μg/mL; MIC at pH 7.4, E. coli W3110 [14]: 4 μg/mL; MIC at pH 8.0, E. coli W3110 [14]: 2 μg/mL
PMB nonapeptide [PMBN]																					Inner membrane depolarization (DiSC3(5) fluorescence), words [15]: no effect on inner membranes; Cell permeabilization (PI), percentage of PI-positive cells ([16]; 16 μg/mL): 40%; Cell permeabilization (PI), percentage of PI-positive cells ([16]; 32 μg/mL): 38%; Cell permeabilization (PI), percentage of PI-positive cells ([16]; 64 μg/mL): 37%

Reference: paper PMC9780108, “An intrinsically disordered antimicrobial peptide dendrimer from stereorandomized virtual screening” (Cell Reports. Physical Science, 2022)
